How the values were obtained:
MtbIMPDH2ΔCBS [1] = target: T1, MtbIMPDH2ΔCBS (Mycobacterium tuberculosis, UniProt P9WKI7, DEL126-250/R252G); format: biochemical
MtbIMPDH2ΔCBS [2] = target: T1, MtbIMPDH2ΔCBS; format: biochemical; remark: listed apart in the source

**Q.** How did the “mechanism of inhibition vs. IMP” value (MtbIMPDH2ΔCBS [1]) turn out when COc1c(C)c2c(c(O)c1C/C=C(\C)Cn1cc(COC[C@H]3O[C@@H](n4cnc5c(N)ncnc54)[C@H](O)[C@@H]3O)nn1)C(=O)OC2 [MAD1, reference compound] was run?
**A.** The value was 1000 ± 50 (UC).

**Q.** And the “mechanism of inhibition vs. NAD^+” value (MtbIMPDH2ΔCBS [1])?
**A.** The value was 1400 ± 100 (UC).

**Q.** What about the “mechanism of inhibition with respect to IMP” value (MtbIMPDH2ΔCBS [1]) of the same molecule?
**A.** The value was “uncompetitive”.

**Q.** And the “mechanism of inhibition with respect to NAD+” value (MtbIMPDH2ΔCBS [1])?
**A.** The value was “uncompetitive”.

**Q.** Which “Kii (NAD+)” value (MtbIMPDH2ΔCBS [2]) does the source give for NC(=O)c1ccc[n+]([C@@H]2O[C@H](COP(=O)([O-])OP(=O)(O)OC[C@H]3O[C@@H](n4cnc5c(N)ncnc54)[C@H](O)[C@@H]3O)[C@@H](O)[C@H]2O)c1 [NAD+] here?
**A.** Its value is 16 ± 1 mM.

**Q.** How did the “mechanism of inhibition vs. IMP” value (MtbIMPDH2ΔCBS [1]) turn out when C=C(C)c1cccc(C(C)(C)NC(=O)Nc2ccc(Cl)c(C(=O)N(C)C)c2)c1 [P41] was run?
**A.** Its value is 9 ± 4 (UC).

**Q.** And the “mechanism of inhibition vs. NAD^+” value (MtbIMPDH2ΔCBS [1])?
**A.** The value was 13 ± 4 (NC).

**Q.** And the “mechanism of inhibition with respect to IMP” value (MtbIMPDH2ΔCBS [1])?
**A.** Its value is “uncompetitive”.

**Q.** What about the “mechanism of inhibition with respect to NAD+” value (MtbIMPDH2ΔCBS [1]) of the same molecule?
**A.** The value was “noncompetitive”.

**Q.** C[C@H](Nc1cccc(Cl)c1Cl)C(=O)Nc1ccc2oc(-c3ccncc3)nc2c1 [Q67] was tested. Which “mechanism of inhibition vs. IMP” value (MtbIMPDH2ΔCBS [1]) did it give?
**A.** The value was 17 ± 9 (UC).

**Q.** And the “mechanism of inhibition vs. NAD^+” value (MtbIMPDH2ΔCBS [1])?
**A.** Its value is 7 ± 7 (C).

**Q.** And the “mechanism of inhibition with respect to IMP” value (MtbIMPDH2ΔCBS [1])?
**A.** The value was “uncompetitive”.

**Q.** What about the “mechanism of inhibition with respect to NAD+” value (MtbIMPDH2ΔCBS [1]) of the same molecule?
**A.** Its value is “competitive”.

Reference: PMC4594927 (PLoS ONE, 2015)
